# Source: ChEMBL document CHEMBL1141566, “Synthesis and antitumor evaluation of bis aza-anthracene-9,10-diones and bis aza-anthrapyrazole-6-ones” (2008)
# What was measured:
# HT-29 [1] = experiment: Effect on proapoptotic CARD6 gene expression in human HT29 cells after 6 hrs; format: functional
# HT-29 [2] = experiment: Effect on proapoptotic BID gene expression in human HT29 cells after 6 hrs; format: functional
# HT-29 [3] = experiment: Effect on apoptosis in human HT29 PI-/AnnV- cells after 6 hrs by biparametric flow cytometric analysis; format: functional; conditions: HT-29, 6 h, read-out: LC50 (the source's name)
# HT-29 [4] = experiment: Effect on proapoptotic BAK1 gene expression in human HT29 cells after 12 hrs; format: functional
# HT-29 [5] = experiment: Effect on apoptotic NOL3 gene expression in human HT29 cells after 12 hrs; format: functional
# HT-29 [6] = experiment: Effect on proapoptotic BCLAF1 gene expression in human HT29 cells after 12 hrs; format: functional
# HT-29 [7] = experiment: Effect on proapoptotic BNIP3L gene expression in human HT29 cells after 6 hrs; format: functional
# HT-29 [8] = experiment: Effect on proapoptotic BFAR gene expression in human HT29 cells after 6 hrs; format: functional
# HT-29 [9] = experiment: Effect on proapoptotic TRADD gene expression in human HT29 cells after 12 hrs; format: functional
# HT-29 [10] = experiment: Effect on proapoptotic BCL2 gene expression in human HT29 cells after 12 hrs; format: functional
# HT-29 [11] = experiment: Effect on apoptotic BIRC3 gene expression in human HT29 cells after 6 hrs; format: functional
# HT-29 [12] = experiment: Effect on apoptosis in human HT29 PI+/AnnV+ cells after 6 hrs by biparametric flow cytometric analysis; format: functional; conditions: HT-29, 6 h, read-out: LC50 (the source's name)
# HT-29 [13] = experiment: Effect on proapoptotic TRADD gene expression in human HT29 cells after 6 hrs; format: functional
# HT-29 [14] = experiment: Effect on proapoptotic BAX gene expression in human HT29 cells after 12 hrs; format: functional
# HT-29 [15] = experiment: Effect on proapoptotic CIDEB gene expression in human HT29 cells after 6 hrs; format: functional
# HT-29 [16] = experiment: Effect on proapoptotic CD70 gene expression in human HT29 cells after 6 hrs; format: functional
# HT-29 [17] = experiment: Effect on proapoptotic TNFRSF11B gene expression in human HT29 cells after 6 hrs; format: functional
# HT-29 [18] = experiment: Effect on apoptotic CFLAR gene expression in human HT29 cells after 6 hrs; format: functional
# HT-29 [19] = experiment: Effect on apoptotic BCL2L1 gene expression in human HT29 cells after 12 hrs; format: functional
# HT-29 [20] = experiment: Effect on apoptosis in human HT29 PI+/AnnV+ cells after 12 hrs by biparametric flow cytometric analysis; format: functional; conditions: HT-29, 12 h, read-out: LC50 (the source's name)
# HT-29 [21] = experiment: Effect on apoptotic NAIP gene expression in human HT29 cells after 12 hrs; format: functional
# HT-29 [22] = experiment: Effect on proapoptotic CASP8 gene expression in human HT29 cells after 6 hrs; format: functional
# HT-29 [23] = experiment: Effect on proapoptotic CARD8 gene expression in human HT29 cells after 6 hrs; format: functional
# HT-29 [24] = experiment: Effect on apoptotic BIRC4 gene expression in human HT29 cells after 12 hrs; format: functional
# HT-29 [25] = experiment: Effect on apoptotic NOL3 gene expression in human HT29 cells after 6 hrs; format: functional
# HT-29 [26] = experiment: Effect on apoptotic BCL2L10 gene expression in human HT29 cells after 6 hrs; format: functional
# HT-29 [27] = experiment: Effect on apoptosis in human HT29 PI+/AnnV- cells after 24 hrs by biparametric flow cytometric analysis; format: functional; conditions: HT-29, 24 h, read-out: LC50 (the source's name)
# HT-29 [28] = experiment: Effect on apoptotic BCL2L10 gene expression in human HT29 cells after 12 hrs; format: functional
# HT-29 [29] = experiment: Effect on proapoptotic BCL2 gene expression in human HT29 cells after 6 hrs; format: functional
# HT-29 [30] = experiment: Effect on apoptosis in human HT29 PI+/AnnV+ cells after 24 hrs by biparametric flow cytometric analysis; format: functional; conditions: HT-29, 24 h, read-out: LC50 (the source's name)
# HT-29 [31] = experiment: Effect on proapoptotic BIK gene expression in human HT29 cells after 6 hrs; format: functional
# HT-29 [32] = experiment: Effect on proapoptotic CD27 gene expression in human HT29 cells after 12 hrs; format: functional
# HT-29 [33] = experiment: Effect on proapoptotic TRAF2 gene expression in human HT29 cells after 6 hrs; format: functional
# HT-29 [34] = experiment: Effect on proapoptotic NOD1 gene expression in human HT29 cells after 6 hrs; format: functional
# HT-29 [35] = experiment: Effect on proapoptotic TRAF4 gene expression in human HT29 cells after 12 hrs; format: functional
# HT-29 [36] = experiment: Effect on proapoptotic CD70 gene expression in human HT29 cells after 12 hrs; format: functional
# HT-29 [37] = experiment: Effect on apoptotic MCL1 gene expression in human HT29 cells after 6 hrs; format: functional
# HT-29 [38] = experiment: Effect on proapoptotic TNFRSF21 gene expression in human HT29 cells after 6 hrs; format: functional
# HT-29 [39] = experiment: Effect on proapoptotic BFAR gene expression in human HT29 cells after 12 hrs; format: functional
# HT-29 [40] = experiment: Effect on proapoptotic CIDEB gene expression in human HT29 cells after 12 hrs; format: functional
# HT-29 [41] = experiment: Effect on apoptosis in human HT29 PI+/AnnV- cells after 12 hrs by biparametric flow cytometric analysis; format: functional; conditions: HT-29, 12 h, read-out: LC50 (the source's name)
# HT-29 [42] = experiment: Effect on apoptotic NAIP gene expression in human HT29 cells after 6 hrs; format: functional
# HT-29 [43] = experiment: Effect on proapoptotic BAK1 gene expression in human HT29 cells after 6 hrs; format: functional
# HT-29 [44] = experiment: Effect on proapoptotic BAX gene expression in human HT29 cells after 6 hrs; format: functional
# HT-29 [45] = experiment: Effect on apoptosis in human HT29 PI-/AnnV- cells after 24 hrs by biparametric flow cytometric analysis; format: functional; conditions: HT-29, 24 h, read-out: LC50 (the source's name)
# HT-29 [46] = experiment: Effect on proapoptotic CASP9 gene expression in human HT29 cells after 12 hrs; format: functional
# HT-29 [47] = experiment: Effect on proapoptotic TRAF3 gene expression in human HT29 cells after 6 hrs; format: functional
# HT-29 [48] = experiment: Effect on proapoptotic CASP7 gene expression in human HT29 cells after 12 hrs; format: functional
# HT-29 [49] = experiment: Effect on proapoptotic TP53 gene expression in human HT29 cells after 6 hrs; format: functional
# HT-29 [50] = experiment: Effect on proapoptotic BNIP3L gene expression in human HT29 cells after 12 hrs; format: functional
# HT-29 [51] = experiment: Effect on apoptosis in human HT29 PI+/AnnV- cells after 6 hrs by biparametric flow cytometric analysis; format: functional; conditions: HT-29, 6 h, read-out: LC50 (the source's name)
# HT-29 [52] = experiment: Effect on apoptotic ABL1 gene expression in human HT29 cells after 6 hrs; format: functional
# HT-29 [53] = experiment: Effect on apoptosis in human HT29 PI-/AnnV+ cells after 12 hrs by biparametric flow cytometric analysis; format: functional; conditions: HT-29, 12 h, read-out: LC50 (the source's name)
# HT-29 [54] = experiment: Effect on proapoptotic CASP7 gene expression in human HT29 cells after 6 hrs; format: functional
# HT-29 [55] = experiment: Effect on apoptosis in human HT29 PI-/AnnV- cells after 12 hrs by biparametric flow cytometric analysis; format: functional; conditions: HT-29, 12 h, read-out: LC50 (the source's name)
# HT-29 [56] = experiment: Effect on apoptotic BIRC4 gene expression in human HT29 cells after 6 hrs; format: functional
# HT-29 [57] = experiment: Effect on apoptotic BRAF gene expression in human HT29 cells after 6 hrs; format: functional
# HT-29 [58] = experiment: Effect on apoptosis in human HT29 PI-/AnnV+ cells after 6 hrs by biparametric flow cytometric analysis; format: functional; conditions: HT-29, 6 h, read-out: LC50 (the source's name)
# HT-29 [59] = experiment: Effect on proapoptotic BCL2L11 gene expression in human HT29 cells after 6 hrs; format: functional
# HT-29 [60] = experiment: Effect on apoptosis in human HT29 PI-/AnnV+ cells after 24 hrs by biparametric flow cytometric analysis; format: functional; conditions: HT-29, 24 h, read-out: LC50 (the source's name)
# HT-29 [61] = experiment: Effect on proapoptotic CD27 gene expression in human HT29 cells after 6 hrs; format: functional
# HT-29 [62] = experiment: Cytotoxicity against human HT29 cells after 72 hrs; format: functional; conditions: HT-29, 72 h
# [63] = Ratio of Kapp for synthetic poly(dA-dT)]2 oligonucleotide to Kapp for synthetic poly(dG-dC)]2 oligonucleotide
# HT-29 [64] = experiment: Effect on apoptotic GADD45A gene expression in human HT29 cells after 6 hrs; format: functional
# HT-29 [65] = experiment: Effect on proapoptotic FAS gene expression in human HT29 cells after 6 hrs; format: functional
# HT-29 [66] = experiment: Effect on proapoptotic FADD gene expression in human HT29 cells after 6 hrs; format: functional
# HT-29 [67] = experiment: Effect on apoptotic BNIP2 gene expression in human HT29 cells after 6 hrs; format: functional
# HT-29 [68] = experiment: Effect on proapoptotic TRAF4 gene expression in human HT29 cells after 6 hrs; format: functional
# HT-29 [69] = experiment: Effect on proapoptotic CASP9 gene expression in human HT29 cells after 6 hrs; format: functional
# HT-29 [70] = experiment: Effect on apoptotic BNIP2 gene expression in human HT29 cells after 12 hrs; format: functional
# HT-29 [71] = experiment: Effect on proapoptotic CASP6 gene expression in human HT29 cells after 6 hrs; format: functional
# HT-29 [72] = experiment: Effect on apoptotic BIRC8 gene expression in human HT29 cells after 6 hrs; format: functional
# HT-29 [73] = experiment: Effect on apoptotic ABL1 gene expression in human HT29 cells after 12 hrs; format: functional
# HT-29 [74] = experiment: Effect on proapoptotic BNIP1 gene expression in human HT29 cells after 6 hrs; format: functional
smiles,measurement,setting,value
CN(C)CCNc1ccc(NCCCN(C)CCCNc2ccc(NCCN(C)C)c3c2C(=O)c2cnccc2C3=O)c2c1C(=O)c1ccncc1C2=O,Fold change,HT-29 [1],-5
same,Fold change,HT-29 [2],4.3
same,CC50,HT-29 [3],88.5 µM
same,Fold change,HT-29 [4],4.1
same,Fold change,HT-29 [5],15
same,Fold change,HT-29 [6],136
same,Fold change,HT-29 [7],7.4
same,Fold change,HT-29 [8],5.4
same,Fold change,HT-29 [9],2.5
same,Fold change,HT-29 [10],-5.9
same,Fold change,HT-29 [11],2.5
same,CC50,HT-29 [12],0.8 µM
same,Fold change,HT-29 [13],4.3
same,Fold change,HT-29 [14],3
same,Fold change,HT-29 [15],9.3
same,Fold change,HT-29 [16],2.2
same,Fold change,HT-29 [17],2.1
same,Fold change,HT-29 [18],4
same,Fold change,HT-29 [19],-5.9
same,CC50,HT-29 [20],1.2 µM
same,Fold change,HT-29 [21],52
same,Fold change,HT-29 [22],2.5
same,Fold change,HT-29 [23],4
same,Fold change,HT-29 [24],2
same,Fold change,HT-29 [25],4.7
same,Fold change,HT-29 [26],3.1
same,CC50,HT-29 [27],8.3 µM
same,Fold change,HT-29 [28],7.8
same,Fold change,HT-29 [29],4.2
same,CC50,HT-29 [30],18.3 µM
same,Fold change,HT-29 [31],5.2
same,Fold change,HT-29 [32],2.2
same,Fold change,HT-29 [33],2.4
same,Fold change,HT-29 [34],4.2
same,Fold change,HT-29 [35],23
same,Fold change,HT-29 [36],2.2
same,Fold change,HT-29 [37],-10
same,Fold change,HT-29 [38],3.7
same,Fold change,HT-29 [39],-2.5
same,Fold change,HT-29 [40],4.4
same,CC50,HT-29 [41],5.3 µM
same,Fold change,HT-29 [42],9.6
same,Fold change,HT-29 [43],4.5
same,Fold change,HT-29 [44],5.3
same,CC50,HT-29 [45],37.1 µM
same,Fold change,HT-29 [46],8.5
same,Fold change,HT-29 [47],4.5
same,Fold change,HT-29 [48],3
same,Fold change,HT-29 [49],3
same,Fold change,HT-29 [50],3.6
same,CC50,HT-29 [51],3.3 µM
same,Fold change,HT-29 [52],33
same,CC50,HT-29 [53],10.3 µM
same,Fold change,HT-29 [54],6.4
same,CC50,HT-29 [55],83.2 µM
same,Fold change,HT-29 [56],9.3
same,Fold change,HT-29 [57],2.4
same,CC50,HT-29 [58],7.4 µM
same,Fold change,HT-29 [59],7.7
same,CC50,HT-29 [60],36.3 µM
same,Fold change,HT-29 [61],2.2
same,GI50,HT-29 [62],0.3 µM
same,LC50 (concentration killing 50% of cells),HT-29 [62],62 µM
same,TGI,HT-29 [62],5.1 µM
same,Ratio,[63],2.5
same,Fold change,HT-29 [64],3
same,Fold change,HT-29 [65],2.2
same,Fold change,HT-29 [66],2.4
same,Fold change,HT-29 [67],-2.9
same,Fold change,HT-29 [68],94
same,Fold change,HT-29 [69],3
same,Fold change,HT-29 [70],-3.3
same,Fold change,HT-29 [71],3
same,Fold change,HT-29 [72],-2.3
same,Fold change,HT-29 [73],58
same,Fold change,HT-29 [74],3
